Laboratory results: ChEMBL document CHEMBL3739354, “Nitrofuranyl Methyl Piperazines as New Anti-TB Agents: Identification, Validation, Medicinal Chemistry, and PK Studies” (ACS Med Chem Lett, 2015)
Converted amounts (≈) assume the structure as drawn.

Assays:
[1] = tested on: Mycobacterium tuberculosis; assay: microbe, parasite or virus in culture; conditions: 168 h
[2] = tested on: Mycobacterium tuberculosis; assay: microbe, parasite or virus in culture; conditions: 168 h; remark: listed apart in the source

Structure (SMILES)	MIC90 [1]	MIC90 [2]
O=[N+]([O-])c1ccc(CN2CCN(c3ccc(F)cc3)CC2)o1	6.55 µM (≈ 2 µg/mL)	–
O=[N+]([O-])c1ccc(CN2CCN(c3ccc(Cl)cc3)CC2)o1	0.072 µM (≈ 0.0232 µg/mL)	0.029 µM (≈ 0.00933 µg/mL)
Cc1cccc(N2CCN(Cc3ccc([N+](=O)[O-])o3)CC2)c1C	25.3 µM (≈ 7.98 µg/mL)	–
O=[N+]([O-])c1ccc(CN2CCN(c3ccccc3)CC2)o1	13.9 µM (≈ 4 µg/mL)	–
O=[N+]([O-])c1ccc(CN2CCN(S(=O)(=O)c3ccccc3)CC2)o1	2.13 µM (≈ 0.748 µg/mL)	> 22.7 µM
COc1cccc(N2CCN(Cc3ccc([N+](=O)[O-])o3)CC2)c1	0.37 µM (≈ 0.117 µg/mL)	0.09 µM (≈ 0.0286 µg/mL)
O=[N+]([O-])c1ccc(CN2CCN(S(=O)(=O)c3ccc(F)cc3)CC2)o1	1.35 µM (≈ 0.499 µg/mL)	1 µM (≈ 0.369 µg/mL)
Cc1ccc(S(=O)(=O)N2CCN(Cc3ccc([N+](=O)[O-])o3)CC2)cc1	0.68 µM (≈ 0.248 µg/mL)	14.6 µM (≈ 5.33 µg/mL)
O=[N+]([O-])c1ccc(CN2CCN(c3cccc(Cl)c3)CC2)o1	0.37 µM (≈ 0.119 µg/mL)	–
O=[N+]([O-])c1ccc(CN2CCN(c3ccc(N4CCOCC4)cc3)CC2)o1	0.08 µM (≈ 0.0298 µg/mL)	0.08 µM (≈ 0.0298 µg/mL)
CC(C)(C)c1ccc(N2CCN(Cc3ccc([N+](=O)[O-])o3)CC2)cc1	1.32 µM (≈ 0.453 µg/mL)	> 25.2 µM
O=[N+]([O-])c1ccc(CN2CCN(c3ccccc3F)CC2)o1	13.1 µM (≈ 4 µg/mL)	–
O=[N+]([O-])c1ccc(CN2CCN(c3cccc(C(F)(F)F)c3)CC2)o1	5.63 µM (≈ 2 µg/mL)	–
O=[N+]([O-])c1ccc(S(=O)(=O)N2CCN(Cc3ccc([N+](=O)[O-])o3)CC2)cc1	0.63 µM (≈ 0.25 µg/mL)	4.19 µM (≈ 1.66 µg/mL)
N#Cc1cccc(N2CCN(Cc3ccc([N+](=O)[O-])o3)CC2)c1	0.19 µM (≈ 0.0593 µg/mL)	0.06 µM (≈ 0.0187 µg/mL)
CC(C)(C)OC(=O)N1CCN(Cc2ccc([N+](=O)[O-])o2)CC1	0.32 µM (≈ 0.0996 µg/mL)	0.12 µM (≈ 0.0374 µg/mL)
COc1c(N2CCNC(C)C2)c(F)cc2c(=O)c(C(=O)O)cn(C3CC3)c12 (stereo not given) [GATIFLOXACIN]	2.66 µM (≈ 0.999 µg/mL)	1.33 µM (≈ 0.499 µg/mL)
CO[C@H]1/C=C/O[C@@]2(C)Oc3c(C)c(O)c4c(O)c(c(/C=N/N5CCN(C)CC5)c(O)c4c3C2=O)NC(=O)/C(C)=C\C=C\[C@H](C)[C@H](O)[C@@H](C)[C@@H](O)[C@@H](C)[C@H](OC(C)=O)[C@@H]1C [RIFAMPIN]	311 µM (≈ 256 µg/mL)	156 µM (≈ 128 µg/mL)
